The text below walks through data of ChEMBL document CHEMBL4420079, “Methylamine derivatives as lysysl oxidase inhibitors for the treatment of cancer” (2017).

Activity calls are given as the source filed them. No cut-off for these calls is given here.

Assay [1] deals with T1, Protein-lysine 6-oxidase (Homo sapiens) (UniProt P28300).
T1 sequence (whole entry): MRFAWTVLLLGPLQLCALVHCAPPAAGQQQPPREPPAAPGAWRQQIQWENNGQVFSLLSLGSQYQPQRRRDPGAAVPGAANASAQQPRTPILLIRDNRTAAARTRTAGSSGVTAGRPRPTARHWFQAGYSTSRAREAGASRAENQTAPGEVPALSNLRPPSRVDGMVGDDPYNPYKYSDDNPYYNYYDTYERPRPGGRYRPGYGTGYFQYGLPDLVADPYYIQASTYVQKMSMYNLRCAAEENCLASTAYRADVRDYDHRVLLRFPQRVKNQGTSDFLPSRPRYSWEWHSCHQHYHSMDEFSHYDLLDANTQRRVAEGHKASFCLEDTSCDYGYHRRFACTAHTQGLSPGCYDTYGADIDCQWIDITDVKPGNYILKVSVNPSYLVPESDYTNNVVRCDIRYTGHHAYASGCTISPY
To be noted: MDA-MB-231, 1 mM.

The nature of assay [2]: Inhibition of pig skin LOX incubated for 45 mins by Amplex red dye based and HRP coupled assay. Also on record: species or system Sus scrofa.

Consider `N#CCCN`, for which, in assay [1], the inhibition entry is “Active”. One may read the IC50 as the concentration that gives 50% inhibition. As for `NCc1ncc(S(=O)(=O)c2ccc3ccccc3c2)s1`, in assay [2], the IC50 came to 1.4 µM.
